Experiments:
[1] = tested on: bone formation; test: Bone formation bioassays, assay not specified (anabolic potential)
Excerpt: (§1) The following bioassays were used for bone formation analysis • BMP-2 gene reporter assay (high throughput screen) • Alkaline phosphatase in osteoblast cells • Calvaria organ culture in vitro, bone formation • Injection into calvaria in vivo, bone formation.
(§2) For example, extracts were screened for bone formation by a high throughput gene reporter assay for BMP-2 followed by an alkaline phosphatase assay and an organ culture model and finally by injection into mice calvaria in vivo. Subfractions of positive extracts and/or pure compounds were further tested for activity.
(§3) The rosemary plant extracts and the pure compounds were tested in an osteoblast/osteoclast co-culture system.

[2] = tested on: BMP-2; test: BMP-2 high throughput gene reporter assay; format: cell-based
Excerpt: as §1
as §2, with “activity. Analysis of the chemical composition of one active extract was performed in order to determine the active compounds.” for “activity.”
(§4) The screening for bone formation was carried out in several stages: • (i) BMP-2 high throughput gene reporter assay of non-hydrolyzed MeOH/H2O extracts (1a) and corresponding glycosidase hydrolyzed extract in ethyl acetate (1b). […] Extracts were assessed in a 4-day in vitro neonatal murine calvarial assay. Bones were incubated with the extracts for the entire 4 days. • (vi) Resorption activity monitored by measuring the amount of type I collagen released in the media as osteoclasts digest bone.

[3] = tested on: osteoblast cells; test: Alkaline phosphatase assay in osteoblast cells; format: cell-based
Protocol: as §1, §4

[4] = tested on: OPG/RANKL; test: Osteoblast/osteoclast co-culture system, OPG/RANKL regulation; format: cell-based
Protocol: as §3

[5] = tested on: NQO1 in hPOBtert cells; test: NQO1 induction, immunoblot; format: cell-based, human
Protocol: Preparation of cytoplasmic extracts—hPOBtert cells were washed two times with cold phosphate-buffered saline and harvested with lysis buffer (1% Triton X-100, 20 mM Tris/HCL pH 8, 137 mM Nacl, 10% Glycerol, 2 mM EDTA pH 8, and freshly added proteinase inhibitors: 1 mM phenylmethylsulfonylfluoride, 0.15 U/ml Aprotinin, 10 μg/ml Leupeptide and 10 μg/ml Pepstatin). The samples were centrifuged at 13000 rpm, 4° C. for 5 min and the supernatant transferred to a fresh tube. The protein concentration was determined using the BioRad protein assay. Approximately 50 μg of each sample were mixed with a suitable volume of sample buffer, denatured for 5 min at 95° C. together with 5 μl protein standard, chilled on ice, and loaded on a 10% ready gel, and submitted to immunoblot analysis using anti-NQO1 antibodies.
Immunoblotting—50 μg of protein cell lysate were resolved by SDS-PAGE. After electrophoresis, proteins were transferred to a PVDF membrane (Invitrogen) according to the manufacturer's protocol. Membranes probed for OPN and NQO1 were blocked and probed in 5% milk in Tris-buffered saline/Tween (20 mM Tris base, pH 7.6, 137 mM, 0.1% Tween 20). The blots were visualised by chemiluminescence development, Western blotting detection system (Amersham Biosciences).
Antibodies—The NQO1 (sc-16464)-specific antibodies were purchased from Santa Cruz Biotechnologies Inc (Santa Cruz, Calif.). […]

[6] = tested on: Osteopontin (OPN) mRNA in hPOBtert cells; test: Osteopontin (OPN) mRNA induction by real-time PCR; format: cell-based, human; conditions: 48 h, normalised to β-actin
Protocol: Cell culture—HPOBTert osteoblasts were seeded on collagen-coated plates and grown in MEM Eagle α Modification medium supplemented with 10% fetal bovine serum, 1% L-glutamine and penicillin/streptomycin, 1 mM β-glycerolphosphate and 50 μg/ml ascorbic acid in a humidified atmosphere of 5% CO2, and 95% air at 37° C. When carnosol and inhibitors were added, an equivalent amount of Me2SO was used as a vehicle control.
Analysis of mRNA levels by Real-Time PCR—Total cellular RNA was extracted using the NucleoSpin RNA II kit (Macherey-Nagel, Switzerland). Equal amounts (1 μg) of RNA from the different treatments were reverse-transcribed using the First Strand cDNA Synthesis kit for RT-PCR (Roche, Mannheim, Germany). For each sample, 2 μl 10× reaction buffer, 4 μl 25 mM MgCl2, 2 μl nucleotide mix, 2 μl random primers, 1 μl RNAse inhibitor and 0.4 μl AMV reverse transcriptase from the kit were added to the sample. The reverse transcriptase was performed at the following thermal cycling conditions (25° C. for 10 min, 42° C. for 60 min, and 75° C. for 5 min) using the PTC-100™ […]).
Real-time Quantitative PCR—Quantitative PCR was performed in 25 μl in triplicates. This consisted of 12.5 μl of Taqman 2× Universal PCR Master Mix, 1.25 μl Assay-on-Demand primers and probes (Applied Biosystems, USA) and 6.25 μl RNAse free water. […]

[7] = tested on: neonatal murine calvarial bones; test: Calvaria organ culture in vitro, bone formation; format: cell-based; conditions: phenolics tested at 1-10 μM
Protocol: as §1, §4

Structure (SMILES): COc1c(OC2OC(COC(=O)C=Cc3ccc(O)cc3)C(O)C(O)C2O)cc2oc(-c3ccc(O)c(O)c3)cc(=O)c2c1O (stereo not shown) [6″-Coumaroylnepitrin]
- anabolic potential [1]: anabolic potential

Structure (SMILES): COc1cc(C=CC(=O)OCC2OC(Oc3cc4oc(-c5ccc(O)c(O)c5)cc(=O)c4c(O)c3OC)C(O)C(O)C2O)ccc1O (stereo not shown) [6″-Feruloylnepitrin]
- anabolic potential [1]: anabolic potential

Structure (SMILES): COc1ccc(-c2cc(=O)c3c(O)cc(O)cc3o2)cc1 [Acacetin]
- BMP-2 induction ([2]; 5-10 μM): 5.5X
- ALP activity induction ([3]; 5-10 μM): 2X

Structure (SMILES): CC(C)c1cc2c(c(O)c1O)[C@@]13CCCC(C)(C)[C@@H]1C[C@@H]2OC3=O [Carnosol]
- BMP-2 induction ([2]; 2.5-10 μM): 4.5-7X
- regulation of OPG/RANKL [4]: activity for regulation of the key cytokines controlling bone remodeling
- NQO1 expression [5]: induces the expression of the phase II enzyme NQO1
- OPN mRNA levels [6]: induce OPN expression dose-dependently
- ALP activity induction ([3]; 2.5-10 μM): 2X
- Bone formation in organ culture [7]: Yes
- anabolic potential [1]: anabolic potential

Structure (SMILES): COc1c(O)cc2oc(-c3ccc(O)c(O)c3)cc(=O)c2c1O [Eupafolin]
- BMP-2 induction ([2]; 2.5-10 μM): 3-8X
- regulation of OPG/RANKL [4]: activity for regulation of the key cytokines controlling bone remodeling
- ALP activity induction ([3]; 5 μM): 2 X
- ALP activity induction ([3]; 10 μM): 4 X
- Bone formation in organ culture [7]: Yes
- anabolic potential [1]: anabolic potential

Structure (SMILES): COc1cc(O)c2c(=O)cc(-c3ccc(O)cc3)oc2c1 [Genkwanin]
- BMP-2 induction ([2]; 5 μM): 4X
- ALP activity induction ([3]; 10 μM): 1.5X

Structure (SMILES): O=c1c(O)c(-c2ccc(O)cc2)oc2cc(O)cc(O)c12 [Kaempferol]
- BMP-2 induction ([2]; 1-10 μM): 2.5X
- ALP activity induction ([3]; 2.5-10 μM): 2-4X
- Bone formation in organ culture [7]: Yes
- anabolic potential [1]: anabolic potential

Structure (SMILES): O=c1cc(-c2ccc(O)cc2)oc2cc(O)c(O)c(O)c12 [Scutellarein]
- BMP-2 induction ([2]; 5, 10 μM): 3-4X
- ALP activity induction ([3]; 10 μM): 2X

From patent US8299034B2, “Nutritional compositions for promotion of bone growth and maintenance of bone health comprising extracts of for example rosemary or caraway” (Nestec S.A., priority 2008, dated 2012)
